Data reported in PMC4506529 (Chemmedchem, 2014).

Key:
[1] = molecular target: human C-terminal DNMT3A (a.a. 623-908) (Homo sapiens, UniProt Q9Y6K1); assay: DNMT3A restriction-based fluorescence enzyme inhibition assay; format: biochemical; conditions: for inhibition at 20 µM / inhibition at 10 µM / inhibition at 32 µM: read-out: Inhibition [%] of DNMT3A catalytic activity; for Inhibition [%] of DNMT3A catalytic activity: mean±SEM where given, otherwise single determination
[2] = tested on: luciferase reporter under control of methylated CMV promoter in KG-1 cells; assay: CMV-luc reexpression in KG-1 cells; format: cell-based, human; conditions: 24 h; for Fold reactivation of luciferase (CMV-luc): vs untreated cells, mean±SEM
[3] = tested on: DNMT1; conditions: compared with SGI-1027; cited from earlier work
[4] = molecular target: hDNMT1 (Homo sapiens, UniProt P26358); assay: DNMT1 [methyl-3H]SAM FlashPlate assay; format: biochemical
[5] = molecular target: T1, histone lysine methyltransferases G9a (Homo sapiens, UniProt Q96KQ7); assay: G9A inhibition assay; format: biochemical
T1 sequence (Q96KQ7 1-1210): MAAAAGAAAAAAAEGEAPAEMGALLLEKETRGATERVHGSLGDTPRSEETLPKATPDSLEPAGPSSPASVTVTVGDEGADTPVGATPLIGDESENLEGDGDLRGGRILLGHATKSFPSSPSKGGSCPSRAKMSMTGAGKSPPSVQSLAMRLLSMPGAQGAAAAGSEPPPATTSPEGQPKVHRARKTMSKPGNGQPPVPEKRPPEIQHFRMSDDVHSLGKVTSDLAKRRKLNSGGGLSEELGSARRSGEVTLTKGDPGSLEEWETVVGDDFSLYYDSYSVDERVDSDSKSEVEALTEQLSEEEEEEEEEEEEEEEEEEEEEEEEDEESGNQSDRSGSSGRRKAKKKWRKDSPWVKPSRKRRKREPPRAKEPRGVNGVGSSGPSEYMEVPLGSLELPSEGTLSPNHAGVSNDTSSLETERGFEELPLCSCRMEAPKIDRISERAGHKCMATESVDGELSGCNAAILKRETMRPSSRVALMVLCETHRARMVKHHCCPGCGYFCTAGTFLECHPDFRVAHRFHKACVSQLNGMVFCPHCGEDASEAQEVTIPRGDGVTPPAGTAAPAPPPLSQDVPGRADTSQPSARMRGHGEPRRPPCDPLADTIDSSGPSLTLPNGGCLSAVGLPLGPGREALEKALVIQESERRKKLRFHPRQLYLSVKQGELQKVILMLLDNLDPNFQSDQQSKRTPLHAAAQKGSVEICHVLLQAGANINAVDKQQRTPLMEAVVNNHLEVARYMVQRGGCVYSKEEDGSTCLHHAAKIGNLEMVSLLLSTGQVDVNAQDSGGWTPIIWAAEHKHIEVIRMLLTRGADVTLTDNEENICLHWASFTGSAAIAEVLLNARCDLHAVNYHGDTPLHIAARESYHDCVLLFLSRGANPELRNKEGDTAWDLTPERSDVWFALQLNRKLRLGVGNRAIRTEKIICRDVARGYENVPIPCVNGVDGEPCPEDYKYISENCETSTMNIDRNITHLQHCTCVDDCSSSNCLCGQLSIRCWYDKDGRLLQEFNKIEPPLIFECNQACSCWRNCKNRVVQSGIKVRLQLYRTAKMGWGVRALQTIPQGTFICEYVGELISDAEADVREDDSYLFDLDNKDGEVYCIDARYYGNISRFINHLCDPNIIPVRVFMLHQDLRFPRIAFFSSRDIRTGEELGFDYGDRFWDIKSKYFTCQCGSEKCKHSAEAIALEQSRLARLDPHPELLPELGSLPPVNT

Chain of human C-terminal DNMT3A (a.a. 623-908) (Q9Y6K1 627-912): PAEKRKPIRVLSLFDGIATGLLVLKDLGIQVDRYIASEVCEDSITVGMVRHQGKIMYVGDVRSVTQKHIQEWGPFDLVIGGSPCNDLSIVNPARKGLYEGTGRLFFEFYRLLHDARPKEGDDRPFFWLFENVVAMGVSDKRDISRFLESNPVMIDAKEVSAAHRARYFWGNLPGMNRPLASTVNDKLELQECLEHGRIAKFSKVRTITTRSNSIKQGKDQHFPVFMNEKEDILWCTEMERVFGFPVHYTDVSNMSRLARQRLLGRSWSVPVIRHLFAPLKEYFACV
Chain of hDNMT1 (P26358 whole entry): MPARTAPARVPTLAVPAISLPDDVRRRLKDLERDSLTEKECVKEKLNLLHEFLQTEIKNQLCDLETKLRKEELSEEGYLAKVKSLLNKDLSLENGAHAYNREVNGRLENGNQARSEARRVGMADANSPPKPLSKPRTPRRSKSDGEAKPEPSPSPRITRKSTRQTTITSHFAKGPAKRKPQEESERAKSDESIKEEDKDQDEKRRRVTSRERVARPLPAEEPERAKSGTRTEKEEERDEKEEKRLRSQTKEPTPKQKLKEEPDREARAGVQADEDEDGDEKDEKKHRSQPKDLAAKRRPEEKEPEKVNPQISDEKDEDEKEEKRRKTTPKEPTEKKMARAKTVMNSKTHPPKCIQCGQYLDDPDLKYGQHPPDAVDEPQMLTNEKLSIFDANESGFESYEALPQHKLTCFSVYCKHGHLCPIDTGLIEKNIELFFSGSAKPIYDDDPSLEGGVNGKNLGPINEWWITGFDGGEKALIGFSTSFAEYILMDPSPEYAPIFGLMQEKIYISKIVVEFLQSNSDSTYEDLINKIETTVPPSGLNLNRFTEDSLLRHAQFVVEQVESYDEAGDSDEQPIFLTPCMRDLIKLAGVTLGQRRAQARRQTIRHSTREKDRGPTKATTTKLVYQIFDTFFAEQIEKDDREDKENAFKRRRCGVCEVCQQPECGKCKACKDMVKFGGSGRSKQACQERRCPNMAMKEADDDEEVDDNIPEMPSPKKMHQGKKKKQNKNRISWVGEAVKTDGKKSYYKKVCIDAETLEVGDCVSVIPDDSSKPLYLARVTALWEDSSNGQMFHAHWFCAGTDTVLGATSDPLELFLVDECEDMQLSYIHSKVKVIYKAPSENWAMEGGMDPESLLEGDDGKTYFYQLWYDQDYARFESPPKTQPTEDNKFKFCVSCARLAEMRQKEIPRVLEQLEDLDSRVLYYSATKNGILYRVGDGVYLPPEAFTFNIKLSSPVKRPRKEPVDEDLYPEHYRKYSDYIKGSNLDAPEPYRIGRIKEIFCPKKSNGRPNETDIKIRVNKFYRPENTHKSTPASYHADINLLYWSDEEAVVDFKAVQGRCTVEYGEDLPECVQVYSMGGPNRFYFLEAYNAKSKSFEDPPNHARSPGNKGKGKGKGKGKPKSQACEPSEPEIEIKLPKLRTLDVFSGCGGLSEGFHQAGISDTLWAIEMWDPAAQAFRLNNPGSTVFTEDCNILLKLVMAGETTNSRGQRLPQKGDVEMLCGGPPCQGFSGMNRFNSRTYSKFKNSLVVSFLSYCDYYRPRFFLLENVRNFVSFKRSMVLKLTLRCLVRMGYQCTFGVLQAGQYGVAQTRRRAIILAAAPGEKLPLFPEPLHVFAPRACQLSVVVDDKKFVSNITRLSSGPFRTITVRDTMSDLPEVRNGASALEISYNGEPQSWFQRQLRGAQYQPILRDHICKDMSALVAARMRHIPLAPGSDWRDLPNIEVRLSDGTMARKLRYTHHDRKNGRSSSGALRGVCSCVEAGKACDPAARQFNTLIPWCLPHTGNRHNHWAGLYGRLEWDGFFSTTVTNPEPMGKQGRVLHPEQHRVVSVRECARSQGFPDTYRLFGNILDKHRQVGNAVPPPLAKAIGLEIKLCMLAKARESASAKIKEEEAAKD

Cc1cc(Nc2ccc(NC(=O)c3ccc([N+](=O)[O-])cc3)cc2)nc(N)n1 [Compound 8, N-[4-(2-Amino-6-methylpyrimidin-4-ylamino)phenyl]-4-nitrobenzamide]
inhibition at 20 µM [1]: 1%

Cc1cc(Nc2ccc(NC(=O)c3ccc(N)cc3)cc2)nc(N)n1 [Compound 9, N-[4-(2-Amino-6-methylpyrimidin-4-ylamino)phenyl]-4-aminobenzamide]
inhibition at 20 µM [1]: 0%

Cc1cc(Nc2ccc(NC(=O)c3ccc(Nc4ccncc4)cc3)cc2)nc(N)n1 [Compound 10, N-[4-(2-Amino-6-methylpyrimidin-4-ylamino)phenyl]-4-(pyridin-4-ylamino)benzamide]
EC50 [1]: 13 µM | inhibition at 10 µM [1]: 32% | inhibition at 32 µM [1]: 91 ± 4%

Cc1cc(Nc2ccc(NC(=O)c3ccc(Nc4ncccn4)cc3)cc2)nc(N)n1 [Compound 11, N-[4-(2-Amino-6-methylpyrimidin-4-ylamino)-phenyl]-4-(pyrimidin-2-ylamino)benzamide]
inhibition at 10 µM [1]: 17% | inhibition at 32 µM [1]: 65 ± 3%

COc1nc(Nc2ccc(C(=O)Nc3ccc(Nc4cc(C)nc(N)n4)cc3)cc2)nc(OC)n1 [Compound 13, N-[4-(2-Amino-6-methylpyrimidin-4-ylamino)phenyl]-4-(4,6-dimethoxy-1,3,5-triazin-2-ylamino)benzamide]
inhibition at 10 µM [1]: 36% | inhibition at 32 µM [1]: 35%

Cc1cc(Nc2ccc(NC(=O)c3ccc(Nc4ncnc5ccccc45)cc3)cc2)nc(N)n1 [Compound 14, N-[4-(2-Amino-6-methylpyrimidin-4-ylamino)phenyl]-4-(quinazolin-4-ylamino)benzamide]
inhibition at 10 µM [1]: 25% | inhibition at 32 µM [1]: 19%

Cc1cc(Nc2ccc(NC(=O)c3ccc(Nc4ncnc5cc(F)ccc45)cc3)cc2)nc(N)n1 [Compound 15, N-[4-(2-Amino-6-methylpyrimidin-4-ylamino)phenyl]-4-(7-fluoroquinazolin-4-ylamino)benzamide]
inhibition at 10 µM [1]: 19% | inhibition at 32 µM [1]: 6%

Cc1cc(Nc2ccc(NC(=O)c3ccc(Nc4cc(-c5ccccc5)nc5ccccc45)cc3)cc2)nc(N)n1 [Compound 16, N-[4-(2-Amino-6-methylpyrimidin-4-ylamino)phenyl]-4-(2-phenylquinolin-4-ylamino)benzamide]
Fold reactivation of luciferase (CMV-luc) ([2]; 0.1 μM): 1.0±0.1 fold | Fold reactivation of luciferase (CMV-luc) ([2]; 1 μM): 1.3±0.1 fold | Fold reactivation of luciferase (CMV-luc) ([2]; 3.2 μM): 5.5±1.3 fold | Fold reactivation of luciferase (CMV-luc) ([2]; 5 μM): 6.0±2.0 fold | Fold reactivation of luciferase (CMV-luc) ([2]; 10 μM): 6.1±2.7 fold | EC50 [1]: 1.6 µM | inhibition at 10 µM [1]: 81 ± 5% | inhibition at 32 µM [1]: 55 ± 10%

Cc1cc(Nc2ccc(NC(=O)c3ccc(Nc4ncnc5nc[nH]c45)cc3)cc2)nc(N)n1 [Compound 17, N-[4-(2-Amino-6-methylpyrimidin-4-ylamino)phenyl]-4-(7H-purin-6-ylamino)benzamide]
inhibition at 10 µM [1]: 8% | inhibition at 20 µM [1]: 3%

CNc1ccc(C(=O)Nc2ccc(Nc3cc(C)nc(N)n3)cc2)cc1 [Compound 23, N-[4-(2-Amino-6-methylpyrimidin-4-ylamino)phenyl]-4-(methylamino)benzamide]
inhibition at 10 µM [1]: 0% | inhibition at 20 µM [1]: 0%

Cc1cc(Nc2ccc(C(=O)Nc3ccc(Nc4ccnc5ccccc45)cc3)cc2)nc(N)n1 [Compound 30, N-[4-(Quinolin-4-ylamino)phenyl]-4-(2-amino-6-methylpyrimidin-4-ylamino)benzamide]
inhibition at 10 µM [1]: 56 ± 11% | inhibition at 32 µM [1]: 47 ± 1% | DNMT1 degradation (in words) [3]: lower efficiency on DNMT1 degradation than SGI-1027

O=C(Nc1ccc(Nc2ccnc3ccccc23)cc1)c1ccc(Nc2ccncc2)cc1 [Compound 31, N-[4-(Quinolin-4-ylamino)phenyl]-4-(pyridin-4-ylamino)benzamide]
Fold reactivation of luciferase (CMV-luc) ([2]; 0.1 μM): 1.1±0.1 fold | Fold reactivation of luciferase (CMV-luc) ([2]; 0.32 μM): 1.3±0.2 fold | Fold reactivation of luciferase (CMV-luc) ([2]; 0.5 μM): 1.6±0.3 fold | Fold reactivation of luciferase (CMV-luc) ([2]; 1 μM): 2.0±0.2 fold | Fold reactivation of luciferase (CMV-luc) ([2]; 3.2 μM): 3.9±0.3 fold | Fold reactivation of luciferase (CMV-luc) ([2]; 5 μM): 3.9±0.1 fold | Fold reactivation of luciferase (CMV-luc) ([2]; 10 μM): 3.2±0.5 fold | concentration from which luciferase expression was reactivated [2]: ≥ 1 µM | EC50 [1]: 0.9 µM | efficacy of hDNMT3A inhibition ([1]; maximal efficacy of the dose–response curve): 90% | inhibition at 10 µM [1]: 73 ± 3% | inhibition at 32 µM [1]: 75 ± 8% | EC50 [4]: 15 ± 3 µM | IC50 [5]: 28 ± 4 µM

Nc1cc(Nc2ccc(C(=O)Nc3ccc(Nc4ccnc5ccccc45)cc3)cc2)nc(N)n1 [Compound 32, N-[4-(Quinolin-4-ylamino)phenyl]-4-(2,6-diaminopyrimidin-4-ylamino)benzamide]
plateau of DNMT3A inhibition ([1]; plateau between 32 and 1 μM, no dose–response curve (data not shown)): 50% | inhibition at 10 µM [1]: 53 ± 8% | inhibition at 32 µM [1]: 53 ± 13%

O=C(Nc1ccc(Nc2ccnc3ccccc23)cc1)c1ccc(Nc2cc(-c3ccccc3)nc3ccccc23)cc1 [Compound 33, N-[4-(Quinolin-4-ylamino)phenyl]-4-(2-phenylquinolin-4-ylamino)benzamide]
inhibition at 10 µM [1]: 29% | inhibition at 32 µM [1]: 46%

O=C(Nc1ccc(Nc2ccncc2)cc1)c1ccc(Nc2ccncc2)cc1 [Compound 36, N-[4-(Pyridin-4-ylamino)phenyl]-4-(pyridin-4-ylamino)benzamide]
inhibition at 10 µM [1]: 18% | inhibition at 32 µM [1]: 54 ± 5%

O=C(Nc1ccc(Nc2ccnc3ccccc23)cc1)c1ccc(Nc2ccnc3ccccc23)cc1 [Compound 37, N-[4-(Quinolin-4-ylamino)phenyl]-4-(quinolin-4-ylamino)benzamide]
inhibition at 10 µM [1]: 39% | inhibition at 32 µM [1]: 29%

O=C(Nc1ccc(Nc2c3ccccc3nc3ccccc23)cc1)c1ccc(Nc2c3ccccc3nc3ccccc23)cc1 [Compound 38, N-[4-(Acridin-9-ylamino)phenyl]-4-(acridin-9-ylamino)benzamide]
inhibition at 10 µM [1]: 48 ± 8% | inhibition at 32 µM [1]: 62 ± 22%

Cc1cc(Nc2ccc(NC(=O)c3ccc(Nc4ccnc5ccccc45)cc3)cc2)nc(N)n1 [SGI-1027, N-(4-(2-amino-6-methylpyrimidin-4-ylamino)phenyl)-4-(quinolin-4-ylamino)benzamide, reference compound]
inhibition at 10 µM [1]: 74 ± 5% | inhibition at 32 µM [1]: 76 ± 5%

N-[4-(2-Amino-6-methylpyrimidin-4-ylamino)-phenyl]-4-(pyridin-4-ylmethylamino)benzamide [Compound 25]
Inhibition [%] of DNMT3A catalytic activity ([1]; 10 μM compound): 0% | Inhibition [%] of DNMT3A catalytic activity ([1]; 32 μM compound): 4%

N-[4-(2-Amino-6-methylpyrimidin-4-ylamino)phenyl]-4-(pyridin-3-ylmethylamino)benzamide [Compound 24]
Inhibition [%] of DNMT3A catalytic activity ([1]; 10 μM compound): 0%
